Test results reported in patent US20220169629A1, “PESTICIDALLY ACTIVE DIAZINE-AMIDE COMPOUNDS” (SYNGENTA CROP PROTECTION AG, priority 2019, published 2022).

Key:
Format in all cases: in vivo
[1] = system: Euschistus heros (neotropical brown stink bug); assay: Example B2: Euschistus heros (neotropical brown stink bug), sprayed soybean leaves, N2 nymphs; conditions: 120 h, application rate of 200 ppm, 5 days after infestation, N2 nymphs on soybean leaves, read-out: control in at least one of the two categories (mortality or growth inhibition)
Method: Example B2: Euschistus heros (Neotropical Brown Stink Bug)
Soybean leaves on agar in 24-well microtiter plates were sprayed with aqueous test solutions prepared from 10′000 ppm DMSO stock solutions. After drying the leaves were infested with N2 nymphs. The samples were assessed for mortality and growth inhibition in comparison to untreated samples 5 days after infestation.

[2] = system: Chilo suppressalis (striped rice stemborer); assay: Example B4: Chilo suppressalis (striped rice stemborer), artificial diet, L2 larvae; conditions: 144 h, application rate of 200 ppm, 6 days after infestation, L2 larvae on artificial diet, read-out: control in at least one of the three categories (mortality, anti-feeding or growth inhibition)
Method: Example B4: Chilo suppressalis (Striped rice stemborer)
24-well microtiter plates with artificial diet were treated with aqueous test solutions prepared from 10′000 ppm DMSO stock solutions by pipetting. After drying, the plates were infested with L2 larvae (6-8 per well). The samples were assessed for mortality, anti-feeding effect, and growth inhibition in comparison to untreated samples 6 days after infestation. Control of Chilo suppressalis by a test sample is given when at least one of the categories mortality, anti-feedant effect, and growth inhibition is higher than the untreated sample.

[3] = system: Spodoptera littoralis (Egyptian cotton leaf worm); assay: Example B7: Spodoptera littoralis (Egyptian cotton leaf worm), sprayed cotton leaf discs, L1 larvae; conditions: foliar, 72 h, application rate of 200 ppm, 3 days after infestation, L1 larvae on cotton leaf discs, read-out: control in at least one of the three categories (mortality, anti-feeding or growth inhibition)
Method: Example B7: Spodoptera littoralis (Egyptian Cotton Leaf Worm)
Cotton leaf discs were placed onto agar in 24-well microtiter plates and sprayed with aqueous test solutions prepared from 10′000 ppm DMSO stock solutions. After drying the leaf discs were infested with five L1 larvae. The samples were assessed for mortality, anti-feeding effect, and growth inhibition in comparison to untreated samples 3 days after infestation. Control of Spodoptera littoralis by a test sample is given when at least one of the categories mortality, anti-feedant effect, and growth inhibition is higher than the untreated sample.

[4] = system: Plutella xylostella (diamond back moth); assay: Example B5: Plutella xylostella (diamond back moth), artificial diet, 24-well, eggs; conditions: 192 h, application rate of 200 ppm, 8 days after infestation, read-out: control in at least one of the two categories (mortality or growth inhibition)
Method: Example B5: Plutella xylostella (Diamond Back Moth)
24-well microtiter plates with artificial diet were treated with aqueous test solutions prepared from 10′000 ppm DMSO stock solutions by pipetting. After drying, Plutella eggs were pipetted through a plastic stencil onto a gel blotting paper and the plate was closed with it. The samples were assessed for mortality and growth inhibition in comparison to untreated samples 8 days after infestation.

[5] = system: Plutella xylostella (diamondback moth); assay: Example B10: Plutella xylostella (diamondback moth), 96-well artificial diet; conditions: 216 h, application rate of 500 ppm, 9 days after infestation, eggs/L1 larvae
Method: Example B10: Plutella xylostella (Diamondback Moth)
96-well microtiter plates containing artificial diet were treated with aqueous test solutions, prepared from 10′000 ppm DMSO stock solutions, by a liquid handling robot. After drying, eggs (˜30 per well) were infested onto a netted lid which was suspended above the diet. The eggs hatch and L1 larvae move down to the diet. The samples were assessed for mortality 9 days after infestation.

[6] = system: Diabrotica balteata (corn root worm); assay: Example B1: Diabrotica balteata (corn root worm), sprayed maize sprouts, L2 larvae; conditions: 96 h, application rate of 200 ppm, 4 days after infestation, L2 larvae on maize sprouts, read-out: control in at least one of the two categories (mortality or growth inhibition)
Method: Example B1: Diabrotica Balteata (Corn Root Worm)
Maize sprouts placed onto an agar layer in 24-well microtiter plates were treated with aqueous test solutions prepared from 10′000 ppm DMSO stock solutions by spraying. After drying, the plates were infested with L2 larvae (6 to 10 per well). The samples were assessed for mortality and growth inhibition in comparison to untreated samples 4 days after infestation.

[7] = system: Myzus persicae (green peach aphid); assay: Example B6: Myzus persicae (green peach aphid), intrinsic activity; conditions: 120 h, test rate of 12 ppm, 5 days after infestation, sucrose solution, infested pea seedlings
Text: Example B6: Myzus persicae (Green Peach Aphid): Intrinsic Activity
Test compounds prepared from 10′000 ppm DMSO stock solutions were applied by pipette into 24-well microtiter plates and mixed with sucrose solution. The plates were closed with a stretched Parafilm. A plastic stencil with 24 holes was placed onto the plate and infested pea seedlings were placed directly on the Parafilm. The infested plate was closed with a gel blotting paper and another plastic stencil and then turned upside down. The samples were assessed for mortality 5 days after infestation.

CC(NC(=O)c1cc(OCC(F)(F)F)cc(C(F)(F)F)c1)c1nccnc1-c1ncc(OCC(F)(F)F)cn1 (centres unmarked) [Compound P5, 3-(2,2,2-trifluoroethoxy)-N-[1-[3-[5-(2,2,2-trifluoroethoxy)pyrimidin-2-yl]pyrazin-2-yl]ethyl]-5-(trifluoromethyl)benzamide]
≥ 80%: percent control (mortality or growth inhibition) at 200 ppm [1] | control at 200 ppm [2] | percent control (mortality, anti-feeding or growth inhibition) at 200 ppm [3] | percent control (mortality or growth inhibition) at 200 ppm [4]

CC(NC(=O)c1cc(OCC(F)(F)F)cc(C(F)(F)F)c1)c1nccnc1-c1ccc(OCC(F)F)cn1 (centres unmarked) [Compound P15, N-[1-[3-[5-(2,2-difluoroethoxy)-2-pyridyl]pyrazin-2-yl]ethyl]-3-(2,2,2-trifluoroethoxy)-5-(trifluoromethyl)benzamide]
≥ 80%: mortality at 500 ppm [5] | control at 200 ppm [2] | percent control (mortality, anti-feeding or growth inhibition) at 200 ppm [3] | percent control (mortality or growth inhibition) at 200 ppm [4] | percent control (mortality or growth inhibition) at 200 ppm [6]

CC(NC(=O)c1cc(Cl)cc(C(F)(F)F)c1)c1nccnc1-c1ccc(OCC(F)(F)F)cn1 (centres unmarked) [Compound P21, 3-chloro-N-[1-[3-[5-(2,2,2-trifluoroethoxy)-2-pyridyl]pyrazin-2-yl]ethyl]-5-(trifluoromethyl)benzamide]
≥ 80%: mortality at 500 ppm [5] | control at 200 ppm [2] | percent control (mortality, anti-feeding or growth inhibition) at 200 ppm [3] | percent control (mortality or growth inhibition) at 200 ppm [4] | percent control (mortality or growth inhibition) at 200 ppm [6]

CC(NC(=O)c1cc(OC(F)F)cc(C(F)(F)F)c1)c1nccnc1-c1ccc(OCC(F)F)cn1 (centres unmarked) [Compound P13, N-[1-[3-[5-(2,2-difluoroethoxy)-2-pyridyl]pyrazin-2-yl]ethyl]-3-(difluoromethoxy)-5-(trifluoromethyl)benzamide]
≥ 80%: mortality at 500 ppm [5] | control at 200 ppm [2] | percent control (mortality, anti-feeding or growth inhibition) at 200 ppm [3] | percent control (mortality or growth inhibition) at 200 ppm [4] | percent control (mortality or growth inhibition) at 200 ppm [6]

CC(NC(=O)c1cc(OCC(F)(F)F)cc(C(F)(F)F)c1)c1nccnc1-c1ncc(OC(F)F)cn1 (centres unmarked) [Compound P30, N-[1-[3-[5-(difluoromethoxy)pyrimidin-2-yl]pyrazin-2-yl]ethyl]-3-(2,2,2-trifluoroethoxy)-5-(trifluoromethyl)benzamide]
≥ 80%: mortality at 500 ppm [5] | control at 200 ppm [2] | percent control (mortality, anti-feeding or growth inhibition) at 200 ppm [3] | percent control (mortality or growth inhibition) at 200 ppm [4] | percent control (mortality or growth inhibition) at 200 ppm [6]

CC(NC(=O)c1cc(OC(F)F)cc(C(F)(F)F)c1)c1nccnc1-c1ncc(OCC(F)(F)F)cn1 (centres unmarked) [Compound P3, 3-(difluoromethoxy)-N-[1-[3-[5-(2,2,2-trifluoroethoxy)pyrimidin-2-yl]pyrazin-2-yl]ethyl]-5-(trifluoromethyl)benzamide]
≥ 80%: percent control (mortality or growth inhibition) at 200 ppm [1] | control at 200 ppm [2] | percent control (mortality, anti-feeding or growth inhibition) at 200 ppm [3] | percent control (mortality or growth inhibition) at 200 ppm [4] | mortality at 12 ppm [7] | percent control (mortality or growth inhibition) at 200 ppm [6]

CC(NC(=O)c1cc(C(F)(F)F)cc(C(F)(F)F)c1)c1nccnc1-c1ncc(OCC(F)F)cn1 (centres unmarked) [Compound P33, N-[1-[3-[5-(2,2-difluoroethoxy)pyrimidin-2-yl]pyrazin-2-yl]ethyl]-3,5-bis(trifluoromethyl)benzamide]
≥ 80%: percent control (mortality or growth inhibition) at 200 ppm [1] | control at 200 ppm [2] | percent control (mortality, anti-feeding or growth inhibition) at 200 ppm [3] | percent control (mortality or growth inhibition) at 200 ppm [4] | percent control (mortality or growth inhibition) at 200 ppm [6]

CC(NC(=O)c1cc(OCC(F)F)cc(C(F)(F)F)c1)c1nccnc1-c1ncc(OC(F)F)cn1 (centres unmarked) [Compound P27, 3-(2,2-difluoroethoxy)-N-[1-[3-[5-(difluoromethoxy)pyrimidin-2-yl]pyrazin-2-yl]ethyl]-5-(trifluoromethyl)benzamide]
≥ 80%: mortality at 500 ppm [5] | control at 200 ppm [2] | percent control (mortality, anti-feeding or growth inhibition) at 200 ppm [3] | percent control (mortality or growth inhibition) at 200 ppm [4] | mortality at 12 ppm [7]

CC(NC(=O)c1cc(SC(F)(F)F)cc(C(F)(F)F)c1)c1nccnc1-c1ncc(OCC(F)F)cn1 (centres unmarked) [Compound P29, N-[1-[3-[5-(2,2-difluoroethoxy)pyrimidin-2-yl]pyrazin-2-yl]ethyl]-3-(trifluoromethyl)-5-(trifluoromethylsulfanyl)benzamide]
≥ 80%: mortality at 500 ppm [5] | control at 200 ppm [2] | percent control (mortality, anti-feeding or growth inhibition) at 200 ppm [3] | percent control (mortality or growth inhibition) at 200 ppm [4] | percent control (mortality or growth inhibition) at 200 ppm [6]

CC(NC(=O)c1cc(OCC(F)F)cc(C(F)(F)F)c1)c1nccnc1-c1ncc(OCC(F)(F)F)cn1 (centres unmarked) [Compound P1, 3-(2,2-difluoroethoxy)-N-[1-[3-[5-(2,2,2-trifluoroethoxy)pyrimidin-2-yl]pyrazin-2-yl]ethyl]-5-(trifluoromethyl)benzamide]
≥ 80%: percent control (mortality or growth inhibition) at 200 ppm [1] | control at 200 ppm [2] | percent control (mortality, anti-feeding or growth inhibition) at 200 ppm [3] | percent control (mortality or growth inhibition) at 200 ppm [4]

CC(NC(=O)c1cc(OCC(F)(F)F)cc(C(F)(F)F)c1)c1nccnc1-c1ccc(C#N)cn1 (centres unmarked) [Compound P25, N-[1-[3-(5-cyano-2-pyridyl)pyrazin-2-yl]ethyl]-3-(2,2,2-trifluoroethoxy)-5-(trifluoromethyl)benzamide]
≥ 80%: mortality at 500 ppm [5] | control at 200 ppm [2] | percent control (mortality, anti-feeding or growth inhibition) at 200 ppm [3] | percent control (mortality or growth inhibition) at 200 ppm [4] | percent control (mortality or growth inhibition) at 200 ppm [6]

CC(NC(=O)c1cc(Br)cc(C(F)(F)F)c1)c1nccnc1-c1ccc(OCC(F)F)cn1 (centres unmarked) [Compound P19, 3-bromo-N-[1-[3-[5-(2,2-difluoroethoxy)-2-pyridyl]pyrazin-2-yl]ethyl]-5-(trifluoromethyl)benzamide]
≥ 80%: mortality at 500 ppm [5] | control at 200 ppm [2] | percent control (mortality, anti-feeding or growth inhibition) at 200 ppm [3] | percent control (mortality or growth inhibition) at 200 ppm [4] | percent control (mortality or growth inhibition) at 200 ppm [6]
